Test results taken from patent publication US6670363B1, “Azole compounds as therapeutic agents for fungal infections” (Ranbaxy Laboratories Limited, priority 2000, dated 2003).
≈ marks a conversion by molar mass, not a printed value.

Test system: A. fumigatus s 1008
Test: In vitro MIC, NCCLS M38P broth method (RPMI 1640/MOPS pH7), Aspergillus fumigatus
Type: cell-based
Conditions: A. fumigatus s 1008

`COc1ccc(NC(=O)NN2CCN(c3ccc(OCC(O)(Cn4cncn4)c4ccc(F)cc4F)cc3)CC2)cc1` (centres unmarked) [Compound 71, 3-{4-[4-(4-Methoxyphenylureido)piperazinyl]phenoxy}-2-(2,4-difluorophenyl)-1-(1H-1,2,4-triazol-1-yl)-propan-2-ol] was tested. Which “MIC (υg/ml) (A. fumigatus s 1008)” value did it give?
The value was over 12.5 µg/mL.

`CN(CC(O)(Cn1cncn1)c1ccc(F)cc1F)c1ccc(NC(=O)Nc2ccc(Cl)cc2)cc1` (centres unmarked) [Compound 86, 3-{N-[4-(p-Chlorophenylureido)-phenyl]-N-methyl}-2-(2,4-difluorophenyl)-1-(1H-1,2,4-triazolyl)-propan-3-amino-2-ol] was tested. Which “MIC (υg/ml) (A. fumigatus s 1008)” value did it give?
The value was over 12.5 µg/mL.

Which “MIC (υg/ml) (A. fumigatus s 1008)” value does the source give for `CN(CC(O)(Cn1cncn1)c1ccc(F)cc1F)c1ccc(NC(=O)Nc2ccc([N+](=O)[O-])cc2)cc1` (centres unmarked) [Compound 85, 3-{N-[4-(p-nitrophenylureido)-phenyl]-N-methyl}-2-(2,4-Difluorophenyl)-1-(1H-1,2,4-triazolyl)-propan-3-amino-2-ol] here?
Its value is over 12.5 µg/mL.

For “3-{4-[4-(4-chlorophenyl-N-ethylureido)-piperazinyl]-phenoxy}-2-(2,4-difluorophenyl)-1-(1H-1,2,4-triazolyl)-2-ethoxy-3-propylamine [Compound 74]”, which “MIC (υg/ml) (A. fumigatus s 1008)” value is on record?
Its value is over 12.5 µg/mL.

For `CC(C)NC(=S)NN1CCN(c2ccc(-n3cnn(CC(O)(Cn4cncn4)c4ccc(F)cc4F)c3=O)cc2)CC1` (centres unmarked) [Compound 90, 2-[2-(2,4-Difluorophenyl)-2-hydroxy-3-(1H-1,2,4-triazol-1-yl)propyl]-4-{4-[4-(isopropylthiouredio)-1-piperazinyl]phenyl}-3-(2H,4H)-1,2,4-triazolone], which “MIC (υg/ml) (A. fumigatus s 1008)” value is on record?
The value was over 12.5 µg/mL.

Which “MIC (υg/ml) (A. fumigatus s 1008)” value does the source give for `CC(Oc1ccc(N2CCN(NC(=O)Nc3ccc(Cl)cc3)CC2)cc1)C(O)(Cn1cncn1)c1ccc(F)cc1F` (centres unmarked) [Compound 78, [1R2S/1S2R] 1-{4-[4-(4-Chlorophenylureido)-piperazinyl]-phenoxy}2-(2,4-difluorophenyl)-1-methyl-3-(1H-1,2,4-triazolyl)-propan-2-ol] here?
Its value is 0.5 µg/mL (≈ 0.836 µM).

How did the “MIC (υg/ml) (A. fumigatus s 1008)” value turn out when `Cc1ccc(NC(=S)NN2CCN(c3ccc(OCC(O)(Cn4cncn4)c4ccc(F)cc4F)cc3)CC2)cc1` (centres unmarked) [Compound 64, 3-{4-[4-(p-Tolylthioureido)piperazinyl]phenoxy}-2-(2,4-difluorophenyl)-1-(1H-1,2,4-trizol-1-yl)-propan-2-ol] was run?
Its value is 3.12 µg/mL (≈ 5.38 µM).

For `O=C(Nc1ccccc1)NN1CCN(c2ccc(OCC(O)(Cn3cncn3)c3ccc(F)cc3F)cc2)CC1` (centres unmarked) [Compound 80, 3-{4-[4-(Phenylureido)-piperazinyl]phenoxy}-2-(2,4-difluorophenyl)-1-(1H-1,2,4-triazol-1-yl)-propan-2-ol], which “MIC (υg/ml) (A. fumigatus s 1008)” value is on record?
The value was over 12.5 µg/mL.

With `CN(CC(O)(Cn1cncn1)c1ccc(F)cc1F)c1ccc(NC(=O)Nc2ccc(CC(=O)O)cc2)cc1` (centres unmarked) [Compound 87] as the compound, how does the “MIC (υg/ml) (A. fumigatus s 1008)” value read?
Its value is over 12.5 µg/mL.

How did the “MIC (υg/ml) (A. fumigatus s 1008)” value turn out when `COC(COc1ccc(N2CCN(NC(=O)N(C)c3ccc(Cl)cc3)CC2)cc1)(Cn1cncn1)c1ccc(F)cc1F` (centres unmarked) [Compound 75, 3-{4-[4-N-(4-Chlorophenyl)-N-(methylureido)-piperazinyl]-phenoxy}-2-(2,4-difluorophenyl)-1-(1H-1,2,4-triazolyl)-2-methoxypropane] was run?
The value was over 12.5 µg/mL.

With `Cc1ccc(NC(=S)Nc2ccc(N(C)CC(O)(Cn3cncn3)c3ccc(F)cc3F)cc2)cc1` (centres unmarked) [Compound 83, 3-{N-[4-(p-Tolylthioureido)-phenyl]-N-methyl}-2-(2,4-difluorophenyl)-1-(1H-1,2,4-triazolyl)-propan-3-amino-2-ol] as the compound, how does the “MIC (υg/ml) (A. fumigatus s 1008)” value read?
Its value is over 12.5 µg/mL.

For `CN(CC(O)(Cn1cncn1)c1ccc(F)cc1F)c1ccc(NC(=S)Nc2ccccc2)cc1` (centres unmarked) [Compound 81, 3-{N-[4-(Phenylthioureido)-phenyl]-N-methyl}-2-(2,4-Difluorophenyl)-1-(1H-1,2,4-triazolyl)-propan-3-amino-2-ol], which “MIC (υg/ml) (A. fumigatus s 1008)” value is on record?
The value was over 12.5 µg/mL.

For `COC(=O)Cc1ccc(NC(=O)Nc2ccc(N(C)CC(O)(Cn3cncn3)c3ccc(F)cc3F)cc2)cc1` (centres unmarked) [Compound 88, 3-{N-[4-((2-Methoxy-2-oxoethyl)-phenylureido)-phenyl]-N-methyl}-2-(2,4-difluorophenyl)-1-(1H-1,2,4-triazolyl)-propan-3-amino-2-ol], which “MIC (υg/ml) (A. fumigatus s 1008)” value is on record?
Its value is over 12.5 µg/mL.

Which “MIC (υg/ml) (A. fumigatus s 1008)” value does the source give for `O=C(Nc1ccc(Cl)cc1Cl)NN1CCN(c2ccc(OCC(O)(Cn3cncn3)c3ccc(F)cc3F)cc2)CC1` (centres unmarked) [Compound 72, 3-{4-[4-(2,4-Dichlorophenylureido)piperazinyl]phenoxy}-2-(2,4-difluorophenyl)-1-(1H-1,2,4-triazol-1-yl)-propan-2-ol] here?
Its value is over 12.5 µg/mL.

With `CC(C)NC(=S)Nc1ccc(N(C)CC(O)(Cn2cncn2)c2ccc(F)cc2F)cc1` (centres unmarked) [Compound 82, 3-{N-[4-(Isopropylthioureido)-phenyl]-N-methyl}-2-(2,4-difluorophenyl)-1-(1H-1,2,4-triazolyl)-propan-3-amino-2-ol] as the compound, how does the “MIC (υg/ml) (A. fumigatus s 1008)” value read?
Its value is over 12.5 µg/mL.

For `O=c1n(-c2ccc(N3CCN(NC(=S)Nc4ccc(Cl)cc4)CC3)cc2)cnn1CC(O)(Cn1cncn1)c1ccc(F)cc1F` (centres unmarked) [Compound 92, 2-[2-(2,4-Difluorophenyl)-2-hydroxy-3-(1H-1,2,4-triazol-1-yl)propyl]-4-{4-[4-(4-chlorophenylthiouredio)-1-piperazinyl]phenyl}-3-(2H,4H)-1,2,4-triazolone], which “MIC (υg/ml) (A. fumigatus s 1008)” value is on record?
Its value is over 12.5 µg/mL.

How did the “MIC (υg/ml) (A. fumigatus s 1008)” value turn out when `CN(CC(O)(Cn1cncn1)c1ccc(F)cc1F)c1ccc(NC(=O)Nc2ccc(F)cc2)cc1` (centres unmarked) [Compound 84, 3-{N-[4-(p-Fluorophenylureido)-phenyl]-N-methyl}-2-(2,4-difluorophenyl)-1-(1H-1,2,4-triazolyl)-propan-3-amino-2-ol] was run?
Its value is over 12.5 µg/mL.

With `O=C(Nc1ccc(Cl)cc1)NN1CCN(c2ccc(OCC(O)(Cn3cncn3)c3ccc(F)cc3F)cc2)CC1` (centres unmarked) [Compound 67, 3-{4-[4-(4-Chlorophenylureido)piperazinyl]phenoxy}-2-(2,4-difluorophenyl)-1-(1H-1,2,4-triazol-1-yl)-propan-2-ol] as the compound, how does the “MIC (υg/ml) (A. fumigatus s 1008)” value read?
The value was 6.25 µg/mL (≈ 10.7 µM).

With `OC(COc1ccc(N2CCN(NC(=S)Nc3cccc4ccccc34)CC2)cc1)(Cn1cncn1)c1ccc(F)cc1F` (centres unmarked) [Compound 68, 3-{4-[4-(1-Napthylthioureido)piperazinyl]phenoxy}-2-(2,4-difluorophenyl)-1-(1H-1,2,4-triazol-1-yl)-propan-2-ol] as the compound, how does the “MIC (υg/ml) (A. fumigatus s 1008)” value read?
The value was over 12.5 µg/mL.

How did the “MIC (υg/ml) (A. fumigatus s 1008)” value turn out when `CC(C)NC(=S)NN1CCN(c2ccc(OCC(O)(Cn3cncn3)c3ccc(F)cc3F)cc2)CC1` (centres unmarked) [Compound 65, 3-{4-[4-(Isopropylaminothiocarbonylamino)piperazinyl]phenoxy}-2-(2,4-difluorophenyl)-1-(1H-1,2,4-triazol-1-yl)-propan-2-ol] was run?
The value was over 12.5 µg/mL.

“3-{4-[4-(4-chlorophenyl-N-ethylureido)-piperazinyl]-phenoxy}-2-(2,4-difluorophenyl)-1-(1H-1,2,4-triazolyl)-propan-3-amino-2-ol [Compound 73]” was tested. Which “MIC (υg/ml) (A. fumigatus s 1008)” value did it give?
The value was over 12.5 µg/mL.

How did the “MIC (υg/ml) (A. fumigatus s 1008)” value turn out when `CN(CC(O)(Cn1cncn1)c1ccc(F)cc1F)c1ccc(NC(=O)Nc2ccc(NC(=S)Nc3ccc(Cl)cc3)cc2)cc1` (centres unmarked) [Compound 89, 3-{N-[4-((p-Chlorophenylthioureido)-phenylureido)-phenyl]-N-methyl}-2-(2,4-difluorophenyl)-1-(1H-1,2,4-triazolyl)-propan-3-amino-2-ol] was run?
Its value is over 12.5 µg/mL.

`Nc1ccc(NC(=O)NN2CCN(c3ccc(OCC(O)(Cn4cncn4)c4ccc(F)cc4F)cc3)CC2)cc1` (centres unmarked) [Compound 76, 3-{4-[4-(4-Aminophenylureido)piperazinyl]phenoxy}-2-(2,4-difluorophenyl)-1-(1H-1,2,4-triazol-1-yl)-propan-2-ol] was tested. Which “MIC (υg/ml) (A. fumigatus s 1008)” value did it give?
The value was over 12.5 µg/mL.

For `OC(COc1ccc(N2CCN(NC(=S)Nc3ccc(Cl)cc3)CC2)cc1)(Cn1cncn1)c1ccc(F)cc1F` (centres unmarked) [Compound 66, 3-{4-[4-(4-Chlorophenylthioureido)piperazinyl]phenoxy}-2-(2,4-difluorophenyl)-1-(1H-1,2,4-triazol-1-yl)-propan-2-ol], which “MIC (υg/ml) (A. fumigatus s 1008)” value is on record?
Its value is over 12.5 µg/mL.

With `C[C@@H](Oc1ccc(N2CCN(NC(=O)Nc3ccc(Cl)cc3)CC2)cc1)[C@](O)(Cn1cncn1)c1ccc(F)cc1F` [Compound 77, [1R2R/1S2S] 1-{4-[4-(4-Chlorophenylureido)-piperazinyl]-phenoxy}-2-(2,4-difluorophenyl)-1-methyl-3-(1H-1,2,4-triazolyl)-propan-2-ol] as the compound, how does the “MIC (υg/ml) (A. fumigatus s 1008)” value read?
The value was 2 µg/mL (≈ 3.34 µM).

`O=C(Nc1cccc2ccccc12)NN1CCN(c2ccc(OCC(O)(Cn3cncn3)c3ccc(F)cc3F)cc2)CC1` (centres unmarked) [Compound 69, 3-{4-[4-(1-Napthylureido)piperazinyl]phenoxy}-2-(2,4-difluorophenyl)-1-(1H-1,2,4-triazol-1-yl)-propan-2-ol] was tested. Which “MIC (υg/ml) (A. fumigatus s 1008)” value did it give?
Its value is over 12.5 µg/mL.

For `O=C(Nc1ccc(Cl)cc1)NN1CCN(c2ccc(-n3cnn(CC(O)(Cn4cncn4)c4ccc(F)cc4F)c3=O)cc2)CC1` (centres unmarked) [Compound 91, 2-[2-(2,4-Difluorophenyl)-2-hydroxy-3-(1H-1,2,4-triazol-1-yl)propyl]-4-{4-[4-(4-chlorophenyluredio)-1-piperazinyl]phenyl}-3-(2H,4H)-1,2,4-triazolone], which “MIC (υg/ml) (A. fumigatus s 1008)” value is on record?
The value was over 12.5 µg/mL.

With `CC(Oc1ccc(N2CCN(NC(=O)Nc3ccc(C(F)(F)F)cc3)CC2)cc1)C(O)(Cn1cncn1)c1ccc(F)cc1F` (centres unmarked) [Compound 79, 1-{4-[4-(4-Trifluoromethylphenylureido)piperazinyl]phenoxy}-2-(2,4-difluorophenyl)-1-methyl-3-(1H-1,2,4-triazol-1-yl)-propan-2-ol] as the compound, how does the “MIC (υg/ml) (A. fumigatus s 1008)” value read?
The value was 8 µg/mL (≈ 12.7 µM).

With `OC(COc1ccc(N2CCN(NC(=S)Nc3ccc(C(F)(F)F)cc3)CC2)cc1)(Cn1cncn1)c1ccc(F)cc1F` (centres unmarked) [Compound 70, 3-{4-[4-(4-Trifluoromethylphenylthioureido)piperazinyl]phenoxy}-2-(2,4-difluorophenyl)-1-(1H-1,2,4-triazol-1-yl)-propan-2-ol] as the compound, how does the “MIC (υg/ml) (A. fumigatus s 1008)” value read?
Its value is over 12.5 µg/mL.
